Measured values taken from article PMC12153055 (Organometallics, 2025).

Key:
[1] = target: 20S proteasome chymotrypsin-like activity (Homo sapiens, UniProt P28074); test: Isolated 20S proteasome, chymotrypsin-like activity (Suc-Leu-Leu-Val-Tyr-AMC); assay type: biochemical; details: 0–100 μM, 1 h, 37 °C, pH 8.0
Description: (§1) Proteasome inhibition by the compounds was evaluated with respect to three major activities of the 20S proteasome, namely, chymotrypsin-like, trypsin-like, and caspase-like activities.
(§2) The effect of the compounds on the activity of the isolated 20S proteasome was tested using specific synthetic fluorogenic peptide substrates (Suc-Leu-Leu-Val-Tyr-AMC, Z-Leu-Ser-Thr-Arg-AMC, and Z-Leu-Leu-Glu-AMC for chymotrypsin-like, trypsin-like, and peptidyl glutamyl peptide hydrolase activity, respectively) as reported elsewhere. Briefly, individual mixtures consisting of the compounds (0–100 μM), 1 μg of isolated 20S proteasome, the specific substrate, and 50 mM Tris–HCl pH 8.0 up to a final volume of 100 μL were incubated at 37 °C, and after 1 h, the fluorescence measurements of the hydrolyzed AMC were recorded on a SpectraMax Gemini XPS microplate reader (λexc = 365 nm, λem = 449 nm).

[2] = test system: MCF10A nontumorigenic cells; test: MTT cytotoxicity assay, MCF10A cells; assay type: cell-based, human; details: 72 h exposure, mean ± SD of three experiments
Description: (§3) The stability of [1]-Cl-[4]-Cl was evaluated in aqueous phosphate-buffered solution (PBS, pH 7.4) using UV–visible spectroscopy. […] The cytotoxicity of the compounds was measured according to a standard MTT assay against human breast cancer (MCF7 and MCF7CR) and ovarian cancer (A2780 and A2780cis) cell lines, and also nontumorigenic MCF10A and human embryonic kidney HEK293T cells (Table ).
(§4) All cell lines were grown in a humidified 5% CO2 environment at 37 °C in dedicated media. Growth media comprised minimum essential medium (MEM) supplemented with 10% FBS, 1% sodium pyruvate, antibiotics, and antimycotic agents for MCF7. MCF10A cells were cultured in a DMEM/F12 Ham’s mixture supplemented with 5% equine serum, 20 ng/mL EGF, 10 μg/mL insulin, […], antibiotics, and antimycotics. MCF7-CR cells were grown in minimum essential medium (MEM), 10% FBS supplemented with 0.1 mg/mL cisplatin, sodium pyruvate, antibiotics, and antimycotics. A2780 and A2780cis cells were cultured in RPMI 1640 GlutaMAX, and HEK293T cells were cultured in DMEM GlutaMAX medium containing 10% heat-inactivated FBS and antibiotics. The effect exerted on cell viability by the compounds was determined using the 3-(4,5-dimethylthiazol-2-yl)-2,5-diphenyltetrazolium bromide (MTT) assay. After individual treatments with 0–100 μM of the compound for 72 h, MTT was added to the culture media at a final concentration of 0.5 mg/mL and incubated for 2 h at 37 °C. Cisplatin was used as a positive control. The medium was replaced with 100 μL of DMSO, and after 10 min, the optical density was recorded at 550 nm on a microplate reader. At least six cultures were used for each data point. Chemicals (Merck-Sigma, Milan, Italy) and plasticware (Corning, Milan, Italy) were cell culture grade.

[3] = test system: A2780cis cisplatin-resistant ovarian cancer cells; test: MTT cytotoxicity assay, A2780cis cells; assay type: cell-based, human; details: 72 h exposure, mean ± SD of three experiments
Description: as §3, §4

[4] = test system: MCF7-CR cisplatin-resistant breast cancer cells; test: MTT cytotoxicity assay, MCF7CR cells; assay type: cell-based, human; details: 72 h exposure, mean ± SD of three experiments
Description: as §3, §4

[5] = test system: A2780 human ovarian carcinoma cells; test: MTT cytotoxicity assay, A2780 cells; assay type: cell-based
Description: as §3, §4

[6] = Solubility in water (qualitative); assay type: physicochemical
[7] = target: 20S proteasome trypsin-like activity (Homo sapiens, UniProt Q99436); test: Isolated 20S proteasome, trypsin-like activity (Z-Leu-Ser-Thr-Arg-AMC); assay type: biochemical; details: 0–100 μM, 1 h, 37 °C, pH 8.0
Description: as §1, §2

dsDNA oligomer = test: SPR biosensor binding to surface-anchored dsDNA oligomer; details: surface-blocked DNA oligomer
Description: The DNA binding ability of curcuminoid ligands and their complexes was evaluated by using a Surface plasmon resonance (SPR) biosensor. The monoexponential nature of binding kinetics for all the compounds is consistent with the presence of a single high-affinity site on DNA (Figure ).
The binding kinetics/affinities of the molecules of interest for DNA were studied according to a previously described biosensor-based method. Briefly, streptavidin was anchored to a carboxylate surface via EDC/NHS chemistry, and 5′-biotinylated dsDNA oligomer (sequence: 3′-[…]-5′) was coupled to surface-blocked streptavidin. Compounds were independently added to the DNA-coated surface at different concentrations, each time following binding kinetics up to equilibrium. PBS buffer was used for both the dissociation and the regeneration steps. Experimental data were fitted to both mono- and biexponential models, and the validity of each model was assessed by a standard F-test procedure. The binding sites on DNA were mapped according to independent competitive binding assays individually using a minor groove binder (GelRed) and a major groove binder (methyl green), respectively. Briefly, GelRed displacement was monitored by comparing the emission spectra of solutions containing different concentrations of curcuminoid-like ligands/complexes (0–100 μM), 20 μM DNA, and GelRed (10 μM) in 10 mM phosphate buffer, pH 7.4. Similarly, methyl green displacement assay was performed by monitoring the absorbance at 630 nm upon addition of candidate competitors (0–100 μM), 100 μM DNA, and methyl green (10 μM) in 50 mM Tris–HCl buffer and 7.5 mM MgSO4, pH 7.5.

[8] = test system: MCF7 human breast adenocarcinoma cells; test: MTT cytotoxicity assay, MCF7 cells; assay type: cell-based
Description: as §3, §4

[9] = target: 20S proteasome PGPH (caspase-like) activity (Homo sapiens, UniProt P28072); test: Isolated 20S proteasome, peptidyl glutamyl peptide hydrolase (caspase-like) activity (Z-Leu-Leu-Glu-AMC); assay type: biochemical; details: 0–100 μM, 1 h, 37 °C, pH 8.0
Description: as §1, §2

[10] = test system: HEK293T human embryonic kidney cells; test: MTT cytotoxicity assay, HEK293T cells; assay type: cell-based; details: 72 h exposure, mean ± SD of three experiments
Description: as §3, §4

p62 = test: Western blot quantification of p62 in MCF7 cells; assay type: cell-based, human; details: 10 μM, 24 h
Description: Since no significant correlation emerged among cytotoxicity, DNA binding affinity, and proteasome inhibition, the effects of the treatment on the expression levels of p62 were evaluated. p62 is a multifunctional binding protein that is involved in signaling pathways of many cellular activities, including autophagy, whose abnormal expression is associated with malignancies, breast cancer in particular. […] This effect was more evident for the free ligand, in agreement with its higher cytotoxicity to breast cancer cells compared with that of the corresponding ruthenium complex (Figure ).
4 Representative autoradiographs (upper panel) and densitometric analyses (lower panel) of p62 levels in MCF7 cells treated with 10 μM of HZPbdcurc and [3]-Cl for 24 h (*p < 0.01 compared with the control; #p < 0.01 compared with [3]-Cl).
Semiquantitative analysis of p62 was performed by Western blotting upon individual 24 h treatments of MCF-7 cells with 10 μM of HZPbdcurc or [Ru(p-cym)(HZPbdcurc)-Cl]-Cl. Treated cells were lysed, and 15 μg of total protein was electrophoresed on 12% SDS-PAGE, then protein bands were electroblotted onto PVDF membranes (Millipore–Milan, Italy). After incubation with anti-p62 monoclonal antibody (Merck Sigma–Milan, Italy), the bands were immunodetected on a ChemiDoc MP imaging system (Bio-Rad - Milan, Italy). […] Western blot results were analyzed using Fiji software.

[11] = MTT, 72 h exposure, mean ± SD of three experiments

Cc1ccc(C(C)C)cc1.Oc1ccc(/C=C/c2cc(/C=C/c3ccc(O)cc3)n(-c3ccccn3)n2)cc1.[Cl-].[Cl][Ru+] [[3]Cl, [Ru(p-cym)(HZPbdcurc)Cl]Cl]
IC50 [1]: > 100 µM | IC50 [2]: 15.6 ± 8.9 µM | IC50 [3]: 2.7 ± 0.4 µM | IC50 [4]: 31.9 ± 6 µM | IC50 [5, 11]: 2 ± 0.1 µM | SI A2780 HEK293T ([5]; selectivity index, values equal IC50 HEK293T / IC50 A2780): 9.50 | solubility in water [6]: partly soluble in H2O | IC50 [7]: > 100 µM | kass (dsDNA oligomer): 10281 ± 5155 M^–1s^–1 | kdiss (dsDNA oligomer): 0.02 ± 0.01 s^–1 | Kd (dsDNA oligomer; equilibrium dissociation constant): 2.2 ± 1.5 µM | IC50 [8, 11]: 23 ± 6 µM | SI MCF7 MCF10A ([8]; selectivity index, values equal IC50 MCF10A / IC50 MCF7): 0.68 | IC50 [9]: > 100 µM | IC50 [10]: 19 ± 2 µM | p62 levels (p62): an increase in the levels of p62 was observed
